The values below come from patent publication US8017773B2, “Cyclohexyl sulfonamide derivatives” (Hoffmann-La Roche Inc., priority 2006, dated 2011).

Broadly, the Ki is the dissociation constant of the complex between target and ligand, obtained from inhibition or displacement.

T1 sequence (Q9Y5N1 whole entry): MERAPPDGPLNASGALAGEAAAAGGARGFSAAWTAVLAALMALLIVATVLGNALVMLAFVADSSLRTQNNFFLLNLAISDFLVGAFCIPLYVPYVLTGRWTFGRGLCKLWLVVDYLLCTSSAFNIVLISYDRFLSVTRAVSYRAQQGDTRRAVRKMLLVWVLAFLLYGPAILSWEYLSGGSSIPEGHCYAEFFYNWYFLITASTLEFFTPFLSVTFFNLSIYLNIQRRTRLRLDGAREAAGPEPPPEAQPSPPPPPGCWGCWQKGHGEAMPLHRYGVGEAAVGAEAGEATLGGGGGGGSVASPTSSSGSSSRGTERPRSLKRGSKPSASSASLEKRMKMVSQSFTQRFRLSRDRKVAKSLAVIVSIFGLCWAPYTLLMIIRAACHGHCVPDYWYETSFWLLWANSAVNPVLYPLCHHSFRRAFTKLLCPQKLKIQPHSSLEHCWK

This experiment has as its target T1, histamine 3 receptor (H3R) (Homo sapiens, UniProt Q9Y5N1).
T1 construct: expressed in transfected cells; host or cells: CHO cells (HR3-CHO), membrane preparation
Put plainly: Binding assay with 3H-(R)α-methylhistamine, competition binding on membranes of the human HR3-CHO cell line. To be noted: 3H(R)α-Methylhistamine 1 nM, Ki calculated from IC50 by Cheng-Prusoff. The procedure: Binding Assay with ^3H-(R)α-methylhistamine
Saturation binding experiments were performed using HR3-CHO membranes prepared as described in Takahashi, K, Tokita, S., Kotani, H. (2003) J. Pharmacol. Exp. Therapeutics 307, 213-218.
An appropriate amount of membrane (60 to 80 μg protein/well) was incubated with increasing concentrations of ^3H(R)α-Methylhistamine di-hydrochloride (0.10 to 10 nM). Non specific binding was determined using a 200 fold excess of cold (R)α-Methylhistamine dihydrobromide (500 nM final concentration). The incubation was carried out at room temperature (in deep-well plates shaking for three hours). The final volume in each well was 250 μl. The incubation was followed by rapid filtration on GF/B filters (pre-soaked with 100 μl of 0.5% PEI in Tris 50 mM shaking at 200 rpm for two hours). The filtration was made using a cell-harvester and the filter plates were then washed five times with ice cold washing buffer containing 0.5 M NaCl. After harvesting, the plates were dried at 55° C. for 60 min, then we added scintillation fluid (Microscint 40, 40 microl in each well) and the amount of radioactivity on the filter was determined in Packard top-counter after shaking the plates for two hours at 200 rpm at room temperature.
Binding Buffer: 50 mM Tris-HCl pH 7.4 and 5 mM MgCl2×6H2O pH 7.4. Washing Buffer: 50 mM Tris-HCl pH 7.4 and 5 mM MgCl2×6H2O and 0.5 M NaCl pH 7.4.
Indirect measurement of affinity of H3R inverse agonists: twelve increasing concentrations (ranging from 10 μM to 0.3 nM) of the selected compounds were always tested in competition binding experiments using membrane of the human HR3-CHO cell line. An appropriate amount of protein, e.g. approximately 500 cpm binding of RAMH at Kd, were incubated for 1 hour at room temperature in 250 μl final volume in 96-well plates in presence of ^3H(R)α-Methylhistamine (1 nM final concentration=Kd). […]
All compounds were tested at a single concentration in duplicates. […] Ki's were calculated from IC50 based on Cheng-Prusoff equation (Cheng, Y, Prusoff, W H (1973) Biochem Pharmacol 22, 3099-3108).
Take `COc1ccc(S(=O)(=O)N[C@H]2CC[C@H](C(=O)N3CCN(C(C)C)CC3)CC2)c(OC)c1` [Example 15, N-{trans-4-[(4-isopropyl-piperazin-1-yl)carbonyl]-cyclohexyl}-2,4-dimethoxy-benzenesulfonamide]: the Ki is 23.4 nM.
As to `CCCS(=O)(=O)N[C@H]1CC[C@H](C(=O)N2CCN(C(C)C)CC2)CC1` [Example 1, N-{trans-4-[(4-isopropylpiperazin-1-yl)carbonyl]cyclohexyl}propane-1-sulfonamide], the Ki is 54.8 nM.
As to `CC(C)N1CCN(C(=O)[C@H]2CC[C@H](N(C(C)C)S(=O)(=O)c3ccc(F)c(Cl)c3)CC2)CC1` [Example 64, 3-chloro-4-fluoro-N-isopropyl-N-[trans-4-(4-isopropyl-piperazine-1-carbonyl)-cyclohexyl]-benzenesulfonamide], the Ki was 8.9 nM.
